These molecules were tested against T1, Human Recombinant Matriptase 2 (Homo sapiens, UniProt Q8IU80) (assay: Matriptase 2 fluorescence-based inhibition assay (Boc-Gln-Ala-Arg-AMC substrate)). Conditions: Ki derived from measured IC50 using Cheng-Prusoff equation; 30 min preincubation, 100 μM substrate, 25° C., pH 7.5; read-out: Mat-2 Ki.
T1 construct: purchased Enzo Life Sciences ALX-201-752-1
T1 sequence (Q8IU80 1-811): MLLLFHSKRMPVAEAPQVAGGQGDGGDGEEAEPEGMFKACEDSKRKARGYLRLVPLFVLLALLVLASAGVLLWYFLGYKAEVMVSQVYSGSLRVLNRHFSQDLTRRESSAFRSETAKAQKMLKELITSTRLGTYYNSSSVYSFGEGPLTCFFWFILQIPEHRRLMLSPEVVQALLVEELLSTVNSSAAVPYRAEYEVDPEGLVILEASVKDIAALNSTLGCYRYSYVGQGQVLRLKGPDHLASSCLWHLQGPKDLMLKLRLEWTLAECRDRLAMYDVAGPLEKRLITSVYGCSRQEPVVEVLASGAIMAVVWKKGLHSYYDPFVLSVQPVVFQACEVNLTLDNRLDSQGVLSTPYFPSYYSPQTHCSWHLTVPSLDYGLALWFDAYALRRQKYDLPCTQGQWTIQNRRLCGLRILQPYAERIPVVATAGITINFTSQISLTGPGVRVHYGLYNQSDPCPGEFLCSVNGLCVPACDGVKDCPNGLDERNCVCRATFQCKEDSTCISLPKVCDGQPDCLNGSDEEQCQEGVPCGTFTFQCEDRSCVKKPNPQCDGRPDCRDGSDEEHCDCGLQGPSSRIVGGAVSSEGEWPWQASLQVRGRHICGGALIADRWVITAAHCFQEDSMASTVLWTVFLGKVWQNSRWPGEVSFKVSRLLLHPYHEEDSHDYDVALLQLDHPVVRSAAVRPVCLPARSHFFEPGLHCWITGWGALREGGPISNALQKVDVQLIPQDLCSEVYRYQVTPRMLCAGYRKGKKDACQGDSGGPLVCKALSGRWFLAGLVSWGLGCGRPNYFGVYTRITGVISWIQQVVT
Type: biochemical
Procedure: Test compounds were evaluated for their potential to inhibit Human Recombinant Matriptase 2 (in-house and commercial protein from Enzo Life Sciences—cat log—ALX-201-752-1) using fluorescence-based assay. The concentration of Recombinant Matriptase 2 and the substrate used in the assay were: 7 nM (commercial) and 15 nM (In-house Matriptase 2) and 100 μM (Boc-Gln-Ala-Arg-7-amido-4-methyl coumarin hydrobromide—Cat log: B4153-Sigma and I-1550 from Bachem) respectively. The assay buffer used comprised 50 mM TRIS pH 7.5, 150 mM NaCl, 0.01% gelatin (G1393 Sigma). The assay was performed by using 384 well black flat bottom plate from Grenier (Cat log: 781076) at 25° C. The enzyme and the test compound were preincubated for 30 mins, and the plate was read at wavelength Ex: 360/Em:480 nm60 mins after substrate addition. The final assay volume of was 20 μl. Stock solution of compounds were initially prepared in DMSO, which were appropriately diluted for screening to determine IC50 determination (final DMSO conc in the assay was 1%). All the measurements were carried out using the Spectramax M5, Molecular devices. The test compounds were screened at 1 and 10 μM concentrations and IC50 was determined for the interested compounds.
Ki is the binding affinity of an inhibitor. Mat-2 Ki as described herein is the binding affinity of an inhibitor such as a compound as described and provided herein to Mat-2. Mat-2 Ki values are derived from the measured IC50. To determine IC50 values, dose-response curves were generated by plotting percentage inhibition as a function of inhibitor concentration and the data was fitted to a sigmoidal non-linear regression equation (variable slope) using Graph Pad Prism software V7. Mat-2 Ki values as described herein were derived from the IC50 using the Cheng-Prusoff equation, which is understood and appreciated by one the skill in the art. The Mat-2 Ki values of tested compounds as described herein are shown in Table A. Accordingly, the compounds can be used to inhibit matriptase 2 and treat diseases and conditions associated with matriptase 2, such as those described herein.

Structure (SMILES) | Ki [nM]
C[C@@H](O)[C@H](NC(=O)[C@H](CCc1ccccc1)NC(=O)CCc1ccccc1)C(=O)NC(CCc1nc(N)no1)C(=O)C(=O)NC(C)(C)C (stereo partly drawn) | ≥ 1000
C[C@@H](O)[C@H](NC(=O)C(CCc1ccccc1)NC(=O)OCc1ccccc1)C(=O)NC(CCCS(C)(=N)=O)C(=O)C(=O)NC(C)(C)C (stereo partly drawn) | ≥ 1000
CO[C@@H](C)[C@H](NC(=O)C(CCc1ccccc1)NC(=O)OCc1ccccc1)C(=O)NC(CCCNC(=N)N)C(=O)C(=O)NC(C)(C)C (stereo partly drawn) | ≤ 100

Continued, values first:

Ki [nM] | Structure (SMILES)
≤ 100 | C[C@H](O)[C@H](NC(=O)[C@H](Cc1cscn1)NC(=O)OCc1ccccc1)C(=O)N[C@@H](CCCNC(=N)N)C(=O)C(=O)NC(C)(C)C
≤ 100 | C[C@@H](O)[C@H](NC(=O)[C@H](Cc1ccc(F)cc1)NC(=O)OCc1ccccc1)C(=O)NC(CCCNC(=N)N)C(=O)C(=O)NC(C)(C)C (stereo partly drawn)
≤ 100 | C[C@H](O)[C@H](NC(=O)[C@H](CCc1ccccc1)NC(=O)CCc1ccccc1)C(=O)NC(CCCNC(=N)N)C(=O)C(=O)NC1CC1 (stereo partly drawn)
